Reference: patent publication US12605396B2, “Methods of treating mastitis with an orthosomycin antimicrobial compound” (Intervet Inc., priority 2020, dated 2026)
In brackets after ≈: the same amount, converted by molar mass. Several values for one entry are separate records, joined by “and”; a condition that tells them apart may be missing. Identical values can stand only once. Entries after “also recorded” stand apart in the source; their conditions may differ. Like-named read-outs stand apart in the source and are kept apart here.

What was measured:
S. aureus [1] = experiment: MIC in full cream UHT milk with alamar Blue; format: cell-based, Staphylococcus aureus; settings: for S. aureus MIC, milk: individual S. aureus isolates, in µg/mL; for Distribution of MIC values: isolates with MIC 0.125 μg/ml / Distribution of MIC values: isolates with MIC 0.25 μg/ml / Distribution of MIC values: isolates with MIC 0.5 μg/ml / Distribution of MIC values: isolates with MIC 1 μg/ml / Distribution of MIC values: isolates with MIC 2 μg/ml / Distribution of MIC values: isolates with MIC 4 μg/ml / Distribution of MIC values: isolates with MIC 8 μg/ml / Distribution of MIC values: isolates with MIC 16 μg/ml / Distribution of MIC values: isolates with MIC 32 μg/ml / Distribution of MIC values: isolates with MIC 64 μg/ml / Distribution of MIC values: isolates with MIC >64 μg/ml / Distribution of MIC values: isolates with MIC ≤0.063 μg/ml / MIC90: S. aureus (n = 20)
Experimental: (§1) For MIC determination in milk, the in vitro activity was determined by measuring the minimum inhibitory concentrations (MIC) according to CLSI document VET01-A4 [1] using full cream UHT milk as test medium. About 2 h before the end of the incubation 10 μL of alamar Blue® was added to each well of the microdilution trays, resulting in a final concentration of 10% of alamar Blue®. Blue color of the medium indicated no living cells (no bacterial growth) red/pink to white color of the medium indicated living cells (bacterial growth). The MIC results were interpreted according to the CLSI document VET01-S3 [2].

S. aureus [2] = experiment: MIC in bacteriological broth (CLSI VET01-A4); format: cell-based, Staphylococcus aureus; settings: for S. aureus MIC, CAMHB: bacteriological broth (CAMHB), individual S. aureus isolates; for Activity against S. aureus isolates in bacteriological broth: different S. aureus isolates
Experimental: (§2) Minimal inhibitory concentrations (MIC) were determined in bacteriological broth according to Clinical and Laboratory Standard Institute (CLSI) guideline VET01-A4 [1]. The MIC results were interpreted according to the CLSI document VET01-S3 [2].

S. uberis = experiment: MIC in bacteriological broth (CLSI VET01-A4); format: cell-based, Streptococcus uberis
Experimental: as §2

[3] = system: mastitis-causing pathogens; experiment: Antimicrobial activity against mastitis-causing pathogens (overall statement); format: cell-based; settings: broth-dilution assay and milk
Experimental: as §2, §1

Strep. agalactiae = experiment: MIC in bacteriological broth (CLSI VET01-A4); format: cell-based, Streptococcus agalactiae
Experimental: as §2

Truep. pyogenes = experiment: MIC in bacteriological broth (CLSI VET01-A4); format: cell-based, Trueperella pyogenes
Experimental: as §2

coa-neg Staph. = experiment: MIC in bacteriological broth (CLSI VET01-A4); format: cell-based, coagulase-negative staphylococci
Experimental: as §2

Strep. dysgalactiae = experiment: MIC in bacteriological broth (CLSI VET01-A4); format: cell-based, Streptococcus dysgalactiae
Experimental: as §2

[4] = broth, of 15 Strep. uberis isolates
[5] = broth, of 15 Strep. agalactiae isolates
[6] = broth, of 15 coa-neg Staph. isolates
[7] = broth, of 15 Staph. aureus isolates
[8] = broth, of 15 Strep. dysgalactiae isolates

CC[C@@H](C(=O)[C@@H](C)[C@@H](O)[C@H](C)CCc1ccc(C)c(O)c1C(=O)O)[C@H]1O[C@](CC)([C@H]2CC[C@](O)(CC)[C@H](C)O2)C[C@@H]1C [Lasalocid, lasalocid]
Activity in milk (S. aureus [1]): no activity; also recorded: lost any activity | S. aureus MIC, milk (S. aureus [1]): >32 | S. aureus MIC, CAMHB (S. aureus [2]): 0.25 (3×) and 1 (4×) and 0.5 | Activity against S. aureus isolates in bacteriological broth (S. aureus [2]; bacteriological broth): active

CC[C@@]1([C@@H]2O[C@@H]([C@H]3O[C@@](O)(CO)[C@H](C)C[C@@H]3C)C[C@@H]2C)CC[C@H]([C@]2(C)CC[C@]3(C[C@H](O)[C@@H](C)[C@@H]([C@@H](C)[C@@H](OC)[C@H](C)C(=O)O)O3)O2)O1 [Monensin, monensin]
Activity in milk (S. aureus [1]): no activity; also recorded: lost any activity | S. aureus MIC, milk (S. aureus [1]): >32 | S. aureus MIC, CAMHB (S. aureus [2]): 0.25 (2×) and 2 (6×) | Activity against S. aureus isolates in bacteriological broth (S. aureus [2]; bacteriological broth): active

CC1(C)S[C@@H]2[C@H](NC(=O)Cc3ccccc3)C(=O)N2[C@H]1C(=O)O [Penicillin G, penicillin G]
Distribution of MIC values: isolates with MIC 0.125 μg/ml (S. aureus [1]): 0 | Distribution of MIC values: isolates with MIC 0.25 μg/ml (S. aureus [1]): 0 | Distribution of MIC values: isolates with MIC 0.5 μg/ml (S. aureus [1]): 0 | Distribution of MIC values: isolates with MIC 1 μg/ml (S. aureus [1]): 1 | Distribution of MIC values: isolates with MIC 2 μg/ml (S. aureus [1]): 0 | Distribution of MIC values: isolates with MIC 4 μg/ml (S. aureus [1]): 0 | Distribution of MIC values: isolates with MIC 8 μg/ml (S. aureus [1]): 2 | Distribution of MIC values: isolates with MIC 16 μg/ml (S. aureus [1]): 1 | Distribution of MIC values: isolates with MIC 32 μg/ml (S. aureus [1]): 1 | Distribution of MIC values: isolates with MIC 64 μg/ml (S. aureus [1]): 0 | Distribution of MIC values: isolates with MIC >64 μg/ml (S. aureus [1]): 1 | Distribution of MIC values: isolates with MIC ≤0.063 μg/ml (S. aureus [1]): 14 | MIC90 (S. aureus [1]): 16 µg/mL (≈ 47.8 µM)

CC[C@@H](C(=O)[C@@H](C)[C@@H](O)[C@H](C)[C@@H]1O[C@@H]([C@@H](CC)C(=O)O)CC[C@@H]1C)[C@H]1O[C@]2(C=C[C@@H](O)[C@]3(CC[C@@](C)([C@H]4CC[C@](O)(CC)[C@H](C)O4)O3)O2)[C@H](C)C[C@@H]1C [Salinomycin, salinomycin]
Activity in milk (S. aureus [1]): no activity; also recorded: lost any activity | S. aureus MIC, milk (S. aureus [1]): >32 | S. aureus MIC, CAMHB (S. aureus [2]): 0.25 (2×) and 1 and 0.5 (5×) | Activity against S. aureus isolates in bacteriological broth (S. aureus [2]; bacteriological broth): active

COC[C@H]1O[C@@H](O[C@@H]2OC[C@@H]3O[C@@]4(OC[C@@H](OC(=O)c5c(C)cc(O)cc5O)[C@@H]5OCO[C@H]54)O[C@H]3[C@H]2O)[C@@H](OC)[C@@H](O)C1O[C@@H]1O[C@H](C)[C@H](OC)[C@H](OC2O[C@H](C)[C@H]3O[C@]4(C[C@@H](O)[C@H](O[C@H]5C[C@@H](O[C@H]6C[C@](C)([N+](=O)[O-])[C@@H](OC)[C@H](C)O6)[C@H](OC(=O)c6c(C)c(Cl)c(O)c(Cl)c6OC)[C@@H](C)O5)[C@@H](C)O4)O[C@]3(C)[C@@H]2O)[C@H]1O (stereo partly shown) [evernimicin]
MIC50 (S. uberis; Streptococcus uberis, bacteriological broth, 15 Strep. uberis isolates tested, read-out: MIC50): 0.25 µg/mL (≈ 0.153 µM) | MIC90 (S. uberis; Streptococcus uberis, bacteriological broth, 15 Strep. uberis isolates tested, read-out: MIC90): 0.5 µg/mL (≈ 0.306 µM) | MIC (S. uberis; Streptococcus uberis, bacteriological broth, 15 Strep. uberis isolates tested, read-out: Maximum MIC): 0.5 µg/mL (≈ 0.306 µM) | MIC (S. uberis; Streptococcus uberis, bacteriological broth, 15 Strep. uberis isolates tested, read-out: Minimum MIC): 0.125 µg/mL (≈ 0.0766 µM) | Number of isolates with MIC 0.125 μg/mL (S. uberis; [4]): 2 | Number of isolates with MIC 0.25 μg/mL (S. uberis; [4]): 10 | Number of isolates with MIC 0.5 μg/mL (S. uberis; [4]): 3 | Antimicrobial activity against mastitis-causing pathogens [3]: Good antimicrobial activity | MIC50 (Strep. agalactiae; Streptococcus agalactiae, bacteriological broth, 15 Strep. agalactiae isolates tested, read-out: MIC50): 0.125 µg/mL (≈ 0.0766 µM) | MIC90 (Strep. agalactiae; Streptococcus agalactiae, bacteriological broth, 15 Strep. agalactiae isolates tested, read-out: MIC90): 0.25 µg/mL (≈ 0.153 µM) | MIC (Strep. agalactiae; Streptococcus agalactiae, bacteriological broth, 15 Strep. agalactiae isolates tested, read-out: Maximum MIC): 0.25 µg/mL (≈ 0.153 µM) | MIC (Strep. agalactiae; Streptococcus agalactiae, bacteriological broth, 15 Strep. agalactiae isolates tested, read-out: Minimum MIC): 0.125 µg/mL (≈ 0.0766 µM) | Number of isolates with MIC 0.125 μg/mL (Strep. agalactiae; [5]): 12 | Number of isolates with MIC 0.25 μg/mL (Strep. agalactiae; [5]): 3 | MIC50 (Truep. pyogenes; Trueperella pyogenes, bacteriological broth, 15 Truep. pyogenes isolates tested, read-out: MIC50): ≤ 0.063 µg/mL | MIC90 (Truep. pyogenes; Trueperella pyogenes, bacteriological broth, 15 Truep. pyogenes isolates tested, read-out: MIC90): ≤ 0.063 µg/mL | MIC (Truep. pyogenes; Trueperella pyogenes, bacteriological broth, 15 Truep. pyogenes isolates tested, read-out: Maximum MIC): ≤ 0.063 µg/mL | MIC (Truep. pyogenes; Trueperella pyogenes, bacteriological broth, 15 Truep. pyogenes isolates tested, read-out: Minimum MIC): ≤ 0.063 µg/mL | Number of isolates with MIC ≤0.063 μg/mL (Truep. pyogenes; broth, of 15 Truep. pyogenes isolates): 15 | MIC90 against S. aureus compared with MIC90 of penicillin G (S. aureus [1]): identical | Distribution of MIC values: isolates with MIC 0.125 μg/ml (S. aureus [1]): 0 | Distribution of MIC values: isolates with MIC 0.25 μg/ml (S. aureus [1]): 0 | Distribution of MIC values: isolates with MIC 0.5 μg/ml (S. aureus [1]): 0 | Distribution of MIC values: isolates with MIC 1 μg/ml (S. aureus [1]): 0 | Distribution of MIC values: isolates with MIC 2 μg/ml (S. aureus [1]): 0 | Distribution of MIC values: isolates with MIC 4 μg/ml (S. aureus [1]): 4 | Distribution of MIC values: isolates with MIC 8 μg/ml (S. aureus [1]): 11 | Distribution of MIC values: isolates with MIC 16 μg/ml (S. aureus [1]): 5 | Distribution of MIC values: isolates with MIC 32 μg/ml (S. aureus [1]): 0 | Distribution of MIC values: isolates with MIC 64 μg/ml (S. aureus [1]): 0 | Distribution of MIC values: isolates with MIC >64 μg/ml (S. aureus [1]): 0 | Distribution of MIC values: isolates with MIC ≤0.063 μg/ml (S. aureus [1]): 0 | MIC90 (S. aureus [1]; Staphylococcus aureus, read-out: MIC90): 16 µg/mL (≈ 9.81 µM) | MIC50 (coa-neg Staph.; bacteriological broth, 15 coa-neg Staph. isolates tested, read-out: MIC50): 0.5 µg/mL (≈ 0.306 µM) | MIC90 (coa-neg Staph.; bacteriological broth, 15 coa-neg Staph. isolates tested, read-out: MIC90): 1 µg/mL (≈ 0.613 µM) | MIC (coa-neg Staph.; bacteriological broth, 15 coa-neg Staph. isolates tested, read-out: Maximum MIC): 8 µg/mL (≈ 4.9 µM) | MIC (coa-neg Staph.; bacteriological broth, 15 coa-neg Staph. isolates tested, read-out: Minimum MIC): 0.25 µg/mL (≈ 0.153 µM) | Number of isolates with MIC 0.25 μg/mL (coa-neg Staph.; [6]): 6 | Number of isolates with MIC 0.5 μg/mL (coa-neg Staph.; [6]): 6 | Number of isolates with MIC 1 μg/mL (coa-neg Staph.; [6]): 2 | Number of isolates with MIC 8 μg/mL (coa-neg Staph.; [6]): 1 | MIC50 (S. aureus [2]; Staphylococcus aureus, bacteriological broth, 15 Staph. aureus isolates tested, read-out: MIC50): 0.5 µg/mL (≈ 0.306 µM) | MIC90 (S. aureus [2]; Staphylococcus aureus, bacteriological broth, 15 Staph. aureus isolates tested, read-out: MIC90): 0.5 µg/mL (≈ 0.306 µM) | MIC (S. aureus [2]; Staphylococcus aureus, bacteriological broth, 15 Staph. aureus isolates tested, read-out: Maximum MIC): 0.5 µg/mL (≈ 0.306 µM) | MIC (S. aureus [2]; Staphylococcus aureus, bacteriological broth, 15 Staph. aureus isolates tested, read-out: Minimum MIC): 0.125 µg/mL (≈ 0.0766 µM) | Number of isolates with MIC 0.125 μg/mL (S. aureus [2]; [7]): 1 | Number of isolates with MIC 0.25 μg/mL (S. aureus [2]; [7]): 2 | Number of isolates with MIC 0.5 μg/mL (S. aureus [2]; [7]): 12 | MIC50 (Strep. dysgalactiae; Streptococcus dysgalactiae, bacteriological broth, 15 Strep. dysgalactiae isolates tested, read-out: MIC50): 0.125 µg/mL (≈ 0.0766 µM) | MIC90 (Strep. dysgalactiae; Streptococcus dysgalactiae, bacteriological broth, 15 Strep. dysgalactiae isolates tested, read-out: MIC90): 0.25 µg/mL (≈ 0.153 µM) | MIC (Strep. dysgalactiae; Streptococcus dysgalactiae, bacteriological broth, 15 Strep. dysgalactiae isolates tested, read-out: Maximum MIC): 0.25 µg/mL (≈ 0.153 µM) | MIC (Strep. dysgalactiae; Streptococcus dysgalactiae, bacteriological broth, 15 Strep. dysgalactiae isolates tested, read-out: Minimum MIC): 0.125 µg/mL (≈ 0.0766 µM) | Number of isolates with MIC 0.125 μg/mL (Strep. dysgalactiae; [8]): 11 | Number of isolates with MIC 0.25 μg/mL (Strep. dysgalactiae; [8]): 4
